# Test results as given in patent US20260265189A1, “NOVEL COMPOUND, AND PHARMACEUTICAL COMPOSITION COMPRISING SAME AS ACTIVE INGREDIENT” (SAPIENSBIO INC., priority 2022, published 2026).
# Assays:
# [1] = tested on: α-SMA expression in MRC5 cells; assay: inhibition of α-SMA expression in MRC5 cells, image screening method; type: cell-based; details: Homo sapiens; MRC5, compound 10 μM, TGF-β1 5 ng/mL, 72 hours, relative to TGF-β1 alone; read-out: Inhibitory activity (α-SMA expression inhibition)
# Method in brief: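 MRC5 cells exposed to compound (10 μM) or DMSO with TGF-β1 (5 ng/mL) for 72 h, then fixed, permeabilised, blocked and immunostained for α-SMA (FITC) and GAPDH. Image-based quantitation; α-SMA level with compound plus TGF-β1 expressed relative to TGF-β1 alone.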
# [2] = tested on: F-actin in MRC5 cells; assay: inhibition of F-actin formation in TGF-β1-treated MRC5 cells (confocal imaging); type: cell-based, human; details: TGF-β1 5 ng/mL, 70 hours; for intracellular F-actin formation: MRC5, compound 10 μM, FIGS. 2C, 2D
# Protocol: (§1) It is known that when the process of pulmonary fibrosis results in structural changes in cells, the level of F-actin increases. Therefore, to confirm the therapeutic efficacy of the compounds of the present invention for pulmonary fibrosis-related diseases, the structural changes of cells after treating fibrosis-induced MRC5 with the compounds of the present invention were measured by the degree of inhibition of F-actin and α-SMA formation.
# (§2) Specifically, MRC5 cells were treated with Compound 32 (10 μM) or Compound 42 (10 μM) according to the present invention, CK-666 (actin polymerization inhibitor, 10 μM), nintedanib (1 μM), or DMSO, which had been dissolved in a 0.5% fetal bovine serum (FBS)-containing medium, and 2 hours later, the cells were treated with TGF-β1 (5 ng/mL) to cause fibrosis. Due to strong cytotoxicity of the drug of nintedanib, all cells die when treated with nintedanib at the same concentration (10 μM) as that of the compound of the present invention, so it is impossible to conduct a comparative experiment. Therefore, the effect was confirmed by treating the cells with 1 μM nintedanib. 70 hours later, the cells were fixed with a 2% paraformaldehyde solution for 10 minutes, treated with a 0.1% Triton X-100 solution for 10 minutes to provide cell membrane permeability, and treated with a 1% bovine serum albumin (BSA) solution to prevent non-specific binding. […] High-resolution F-actin images acquired with a STELLARIS 5 confocal microscope (Leica) were quantitatively represented by standardizing F-actin stained with rhodamine phalloidin using Alexa Fluor™ Plus 488-labeled GAPDH using self-developed analysis software through programming. […] High-resolution α-SMA images acquired with a STELLARIS 5 confocal microscope (Leica) were quantitatively represented by standardizing α-SMA stained with an anti-α-SMA-FITC antibody with Alexa Fluor™ Plus 488-labeled GAPDH using self-developed analysis software through programming.
# [3] = tested on: α-SMA in MRC5 cells; assay: inhibition of α-SMA formation in TGF-β1-treated MRC5 cells (confocal imaging); type: cell-based, human; details: TGF-β1 5 ng/mL, 70 hours; for intracellular α-SMA formation: MRC5, compound 10 μM, FIGS. 2A, 2B
# Protocol: as §1, §2
# [4] = tested on: IL-6 secretion by M1 macrophages derived from THP-1; assay: IL-6 secretion by LPS-activated THP-1-derived M1 macrophages (cytometric bead array); type: cell-based, human; details: LPS 10 ng/mL 6 hours, compound 1 μM or 10 μM, FIG. 3
# Protocol: IL-6 is one of the pro-inflammatory cytokines secreted by activated macrophages, M1 macrophages, and is a potent trigger of fibrosis. Therefore, to evaluate the inhibitory activity of the compounds according to the present invention to inhibit pulmonary fibrosis through the inhibition of inflammatory effects, the extent of IL-6 secretion by macrophages after treatment of activated macrophages with the compounds was compared.
# First, macrophages were prepared through the following process: 1 mL of a medium containing 5×10^5 cells/mL of THP-1 cells (Korean Cell Line Bank; KCLB NO. 40202) grown in a complete medium (a medium in which Roswell Park Memorial Institute [RPMI] is supplemented with 10% [vol/vol] fetal bovine serum [FBS] and 1% [vol/vol] penicillin/streptomycin [P/S]) was dispensed by 1 mL into each well of a 12-well plate. […]
# Subsequently, the measurement of a cytokine level was performed through the following process: the secured complete medium was centrifuged at 13,000 RPM for 10 minutes in a 4° C. centrifuge, and then a supernatant was transferred to a new 1.5 mL microcentrifuge tube. […] The amount of IL-6 binding to the beads was measured using a Novocyte 3000 flow cytometer (Agilent).
# [5] = tested on: MRC5 cells; assay: cytotoxicity in MRC5 cells; type: cell-based, human; details: 10 μM
# [6] = cited from earlier work; for lung function improvement: clinical use as therapeutic drug for pulmonary fibrosis
# [7] = tested on: α-SMA expression in MRC5 cells; details: stated as known; cited from earlier work
SMILES,inhibition at 10 µM [1] [%],intracellular F-actin formation [2],intracellular α-SMA formation [3],IL-6 production [4],cytotoxicity [5],"F-actin formation ([2]; MRC5, nintedanib 1 μM)","therapeutic effect ([6]; IPF treatment, stated as known) [%]",lung function improvement [6],"effect of inhibiting α-SMA formation ([3]; MRC5, nintedanib 1 μM)",α-SMA inhibitory activity [7] [%]
"CC(C)CN1CCC(NC(=O)N2CCN(c3ccc(F)cc3)c3cc(F)ccc32)CC1 [Compound 32, 6-fluoro-4-(4-fluorophenyl)-N-(1-isobutylpiperidin-4-yl)-3,4-dihydroquinoxaline-1(2H)-carboxamide]",≥ 70,decreased to a level similar to that in the group not treated with TGF-β1,decreased to a level similar to that in the group not treated with TGF-β1,decrease,,,,,,
COC(=O)c1ccc2c(c1)NC(=O)/C2=C(\Nc1ccc(N(C)C(=O)CN2CCN(C)CC2)cc1)c1ccccc1 [nintedanib],,,,,all cells die,did not inhibit,10,about 10%,lower than Compounds 32 and 42,0
"CC(C)N1CC(NC(=O)N2CCN(c3ccc(F)cc3)c3cc(F)ccc32)C1 [Compound 42, 6-fluoro-4-(4-fluorophenyl)-N-(1-isopropylazetidin-3-yl)-3,4-dihydroquinoxaline-1(2H)-carboxamide]",50 to 70,decreased to a level similar to that in the group not treated with TGF-β1,decreased to a level similar to that in the group not treated with TGF-β1,decrease,,,,,,
Cc1ccc(=O)n(-c2ccccc2)c1 [Pirfenidone],,,,,,,,about 10%,,
